As usually defined, the EC50 is the midpoint of the concentration-response curve. Read a high EC50 as a less potent agent.

Experiment [1] has as its target Melanocyte-stimulating hormone receptor (Mus musculus, UniProt Q01727). As to the kind of experiment: Agonist activity on mouse melanocortin 1 receptor (mMC1R) stably expressed in HEK cells. The experiment is classed as functional, cell-based, HEK293.
In the next experiment the target is Melanocortin receptor 3 (Mus musculus, UniProt P33033). The experiment in a line: Agonist activity on mouse Melanocortin 3 receptor (mMC3R) stably expressed in HEK cells. The experiment is classed as functional, cell-based, HEK293.
A further experiment addresses Melanocortin receptor 4 (Mus musculus, UniProt P56450). As to the kind of experiment: Agonist activity on mouse melanocortin 4 receptor (mMC4R) stably expressed in […] cells. Type of experiment: functional, cell-based.
The target in another experiment is Melanocortin receptor 5 (Mus musculus, UniProt P41149). As to the kind of experiment: Agonist activity on mouse melanocortin 5 receptor (mMC5R) stably expressed in […] cells. Type of experiment: functional, cell-based.

The structures appear in SMILES notation. Bounds are passed on as bounds.

Chain of Melanocyte-stimulating hormone receptor (Q01727 whole entry): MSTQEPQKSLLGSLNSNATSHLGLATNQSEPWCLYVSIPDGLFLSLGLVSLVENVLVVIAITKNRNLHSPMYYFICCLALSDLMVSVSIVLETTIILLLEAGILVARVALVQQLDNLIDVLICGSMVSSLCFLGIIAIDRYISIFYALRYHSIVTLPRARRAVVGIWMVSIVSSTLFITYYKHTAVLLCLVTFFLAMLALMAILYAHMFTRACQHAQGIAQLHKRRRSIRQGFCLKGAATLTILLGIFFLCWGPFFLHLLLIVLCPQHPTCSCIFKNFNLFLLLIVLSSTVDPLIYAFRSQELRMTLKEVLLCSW
Chain of Melanocortin receptor 5 (P41149 whole entry): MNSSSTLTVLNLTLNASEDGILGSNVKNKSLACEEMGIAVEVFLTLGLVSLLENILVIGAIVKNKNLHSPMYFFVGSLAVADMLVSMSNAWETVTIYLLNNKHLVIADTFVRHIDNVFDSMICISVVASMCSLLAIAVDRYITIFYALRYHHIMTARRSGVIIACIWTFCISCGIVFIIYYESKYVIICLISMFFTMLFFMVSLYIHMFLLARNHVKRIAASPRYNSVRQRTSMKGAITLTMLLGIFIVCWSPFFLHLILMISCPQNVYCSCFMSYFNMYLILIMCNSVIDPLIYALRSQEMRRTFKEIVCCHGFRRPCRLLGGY
Chain of Melanocortin receptor 3 (P33033 whole entry): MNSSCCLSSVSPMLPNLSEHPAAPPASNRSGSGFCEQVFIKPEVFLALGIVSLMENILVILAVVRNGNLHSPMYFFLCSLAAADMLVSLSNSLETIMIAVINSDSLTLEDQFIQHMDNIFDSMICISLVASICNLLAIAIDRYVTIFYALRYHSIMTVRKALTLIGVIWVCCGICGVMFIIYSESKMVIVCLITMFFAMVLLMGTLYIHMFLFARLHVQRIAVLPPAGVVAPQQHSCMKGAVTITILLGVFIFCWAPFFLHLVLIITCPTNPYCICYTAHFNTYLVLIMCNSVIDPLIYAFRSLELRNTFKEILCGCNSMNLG
Chain of Melanocortin receptor 4 (P56450 whole entry): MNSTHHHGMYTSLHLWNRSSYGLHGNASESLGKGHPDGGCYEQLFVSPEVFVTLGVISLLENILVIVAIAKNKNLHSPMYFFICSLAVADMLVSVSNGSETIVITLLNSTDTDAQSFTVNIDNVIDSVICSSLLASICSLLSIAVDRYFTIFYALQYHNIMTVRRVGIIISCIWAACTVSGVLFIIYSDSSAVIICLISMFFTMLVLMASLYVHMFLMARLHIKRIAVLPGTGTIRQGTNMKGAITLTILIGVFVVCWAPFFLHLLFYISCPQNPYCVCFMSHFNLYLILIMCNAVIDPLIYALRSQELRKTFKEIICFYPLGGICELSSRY

As for `NCCCNC(=O)[C@H](Cc1c[nH]c2ccccc12)NC(=O)NCc1ccccc1`, the EC50 in experiment [1] was 51.2 µM; on Melanocortin receptor 3, > 100 µM; at Melanocortin receptor 4, > 100 µM; at Melanocortin receptor 5 it was 39.9 µM.
On to `NCCCCCNC(=O)[C@H](Cc1c[nH]c2ccccc12)NC(=O)NCc1ccccc1`, for which the EC50 was 14.8 µM in experiment [1], > 100 µM on Melanocortin receptor 3, > 100 µM at Melanocortin receptor 4 and 20 µM at Melanocortin receptor 5.
For the molecule `NCCCCNC(=O)[C@H](Cc1c[nH]c2ccccc12)NC(=O)NN1CCc2ccccc2C1`, the EC50 in experiment [1] is 7.9 µM; on Melanocortin receptor 3, 1.7 µM; at Melanocortin receptor 4, 3.4 µM; at Melanocortin receptor 5, 4.9 µM.
For `NCCCCNC(=O)[C@@H](Cc1c[nH]c2ccccc12)NC(=O)NCc1ccccc1`, in that order: 42.4 µM, 100 µM, 23.7 µM and 32.8 µM.
With `Cc1cccc(CNC(=O)[C@H](Cc2c[nH]c3ccccc23)NC(=O)NCc2ccccc2)c1`, the EC50 was 28 µM in experiment [1], > 100 µM on Melanocortin receptor 3, > 100 µM on Melanocortin receptor 4 and > 100 µM at Melanocortin receptor 5.
With `CC1CCN(CNC(=O)[C@H](Cc2c[nH]c3ccccc23)NC(=O)NCc2ccccc2)CC1`, the EC50 in experiment [1] was 5.2 µM; at Melanocortin receptor 3, 4.4 µM; on Melanocortin receptor 4, > 100 µM; at Melanocortin receptor 5, 8.2 µM.
For `NCCCCNC(=O)[C@H](Cc1c[nH]c2ccccc12)NC(=O)NCCc1ccccc1`, in that order: > 100 µM, > 100 µM, > 100 µM and > 100 µM.
For `NCCCCNC(=O)[C@H](Cc1c[nH]c2ccccc12)NC(=O)NN1CCC(Cc2ccccc2)CC1`, in that order: 20 µM, 100 µM, 100 µM and 28.9 µM.
In the same order, the values of `NCCCCCCNC(=O)[C@H](Cc1c[nH]c2ccccc12)NC(=O)NCc1ccccc1` are 22.3 µM, > 100 µM, > 100 µM and > 100 µM.
Turning to `NCCCCNC(=O)[C@H](Cc1c[nH]c2ccccc12)NC(=O)NCc1ccccc1`, the EC50 in experiment [1] was 55 µM; at Melanocortin receptor 3, > 100 µM; on Melanocortin receptor 4, 23.7 µM; at Melanocortin receptor 5, 30.5 µM.
Regarding `NCCCCNC(=O)[C@H](Cc1c[nH]c2ccccc12)NC(=O)NC1CCN(Cc2ccccc2)CC1`, the 50% effective concentration (EC50) in experiment [1] turned out to be 5 µM; at Melanocortin receptor 3, 4.4 µM; on Melanocortin receptor 4, 2.8 µM; at Melanocortin receptor 5, 8.2 µM.
Regarding `NCc1ccc(NC(=O)[C@H](Cc2c[nH]c3ccccc23)NC(=O)NCc2ccccc2)cc1`, the EC50 in experiment [1] is 0.4 µM; on Melanocortin receptor 3, 10.7 µM; at Melanocortin receptor 4, 0.4 µM; at Melanocortin receptor 5 it was 4.9 µM.
For `NCCCCNC(=O)[C@H](Cc1ccc(OCc2ccccc2)cc1)NC(=O)NCc1ccccc1`, the EC50 in experiment [1] is 20.5 µM; on Melanocortin receptor 3, > 100 µM; on Melanocortin receptor 4, > 100 µM; on Melanocortin receptor 5 it was 14.4 µM.
Take `NCCCCNC(=O)[C@H](CCc1ccccc1)NC(=O)NCc1ccccc1`: the EC50 (in experiment [1]; on Melanocortin receptor 3; on Melanocortin receptor 4; on Melanocortin receptor 5) was > 100 µM in each case.

Source of the values: ChEMBL document CHEMBL1136069, “Urea small molecule agonists on mouse melanocortin receptors” (Bioorg Med Chem Lett, 2003).
